Tests used:
[1] = tested on: Ba/F3 LMNA-NTRK1-G595R cell line; experiment: In vitro cytological inhibitory activity (CelltiterGlo assay); assay type: cell-based; details: Mus musculus, BaF3, Ba/F3 LMNA-NTRK1-G595R cells, 72 hrs
Procedure: (§1) The cell lines used in the experiment have the following meanings: Ba/F3 LMNA-NTRK1-G595R cell line: • a stable expression cell line of Ba/F3 cells transfected with LMNA-NTRK1 G595R; Ba/F3 ETV6-NTRK3-G623R cell line: • a stable expression cell line of Ba/F3 cells transfected with ETV6-NTRK3-G623R. Experimental Method (CelltiterGlo Assay) 1. Cell Culture and Inoculation
(§2) All cells were suspension cells and the medium was RPMI-1640+10% FBS, and cells were tested in a logarithmic growth phase.
(§3) Cells in the logarithmic growth phase were collected and counted using a […]. The cell viability was detected by the trypan blue exclusion method, and the cell viability was kept over 90%. The cell concentration was adjusted to be in a proper range; 90 μL of the cell suspension was added to a 96-well plate.
(§4) The stock solutions of test compounds were diluted from 10 mM to 1 mM with DMSO and then serially diluted in a 3-fold gradient for 9 concentrations. The 2 μL DMSO-gradient diluted compound solutions were added to 98 μL culture solutions to give working stock solutions of test compounds (compound concentration was 10-fold higher than the final concentration, DMSO concentration was 1%, maximum concentration was 10 μM).
(§5) • 10 μL of compound working stock solution was added to each well in the 96-well plate inoculated with cells (10-fold dilution, final DMSO concentration was 0.1%).
(§6) The cells were cultured in a cell culture incubator at 5% CO2 for 72 hrs.
(§7) The CTG reagent was thawed and the cell plate was equilibrated to room temperature for 30 mins, 60 μL of reagent (Celltiter Glo assay kit) was added to each well, shaking was performed for 2 mins with a shaker (in the absence of light), and the plate was incubated at room temperature for 10 mins (in the absence of light). The light signal values were read on the multi-functional microplate reader.
(§8) • 1) Inhibition (%)=(DMSO solvent control well reading−test compound well reading)/(DMSO solvent control well reading−blank well reading)×100%; • 2) a curve was plotted with GraphPad Prism 5.0 and IC50 was obtained.

[2] = tested on: Ba/F3 ETV6-NTRK3-G623R cell line; experiment: as above; assay type: cell-based; details: Mus musculus, BaF3, Ba/F3 ETV6-NTRK3-G623R cells, 72 hrs
Procedure: as §1, §2, §3, §4, §5, §6, §7, §8

[3] = tested on: BaF3-LMNA-NTRK1-G595R stable cell strain xenograft tumor; experiment: Efficacy study on BaF3-LMNA-NTRK1-G595R stable cell strain subcutaneous xenograft model; assay type: in vivo, mice (NOD-SCID); details: bid, p.o., 7 days
Procedure: The RPMI 1640 serum-free medium resuspended BaF3 LMNA-NTRK1-G595R stable cell strains were inoculated subcutaneously in the right scapular region of mice (NOD-SCID) at 1×10^6 cells/mouse (0.1 mL/mouse).
When the average tumor volume was around 500 mm^3, the groups were randomized into vehicle group, Compound 3 group (10 mg/kg, 5 mg/kg, 3 mg/kg, 1 mg/kg, bid) and LOXO-195 group (30 mg/kg, 10 mg/kg, 3 mg/kg, bid).

[4] = tested on: Ba/F3 SLC34A2/ROS1-G2032R cell line; experiment: In vitro cytological inhibitory activity (Celltiter-Glo assay); assay type: cell-based; details: Mus musculus, BaF3, Ba/F3 SLC34A2/ROS1-G2032R cells, 72 hrs
Procedure: The cell lines used in the experiment have the following meanings: • Ba/F3 SLC34A2/ROS1-G2032R cell line: • a stable expression cell line of Ba/F3 cells transfected with SLC34A2/ROS1-G2032R. Experimental Method (Celltiter-Glo Assay) 1. Cell Culture and Inoculation
as §2, §3
as §4, with “3.16-fold” for “3-fold”
as §5
The final concentrations of test compounds were: 1000 nM, 316 nM, 100 nM, 31.6 nM, 10 nM, 3.16 nM, 1 nM, 0.316 nM and 0.1 nM.
as §6
as §7, with “100” for “60”, “5” for “2”, “20” for “10”
• 1) Cell viability (%)=(test compound well reading−blank well reading)/(DMSO solvent control well reading−blank well reading)×100%; • 2) a curve was plotted with GraphPad Prism 5.0 and IC50 was obtained.

IC50 [1] | IC50 [2] | IC50 [4] | Structure (SMILES) | T/C (%) ([3]; Experiment 1, 3 mg/Kg) | TGI (%) ([3]; Experiment 1, 3 mg/Kg) | other results
0.6 nM | 1 nM |  | C[C@H]1COc2ncc(F)cc2[C@H]2CCCN2c2ccc3ncn(c3n2)C(=O)N1 (single isomer, unassigned) [Compound 2] |  |  | 
0.6 nM | 1 nM | 2.3 nM | C[C@@H]1COc2ncc(F)cc2[C@H]2CCCN2c2ccc3ncn(c3n2)C(=O)N1 (single isomer, unassigned) [Compound 3] | 73.2% | 26.8% | T/C (%) ([3]; Experiment 2, 1 mg/Kg): 53.7%; TGI (%) ([3]; Experiment 2, 1 mg/Kg): 46.3%; T/C (%) ([3]; Experiment 2, 5 mg/Kg): 0%; TGI (%) ([3]; Experiment 2, 5 mg/Kg): 100%; T/C (%) ([3]; Experiment 2, 10 mg/Kg): 0%; TGI (%) ([3]; Experiment 2, 10 mg/Kg): 100%
2 nM | 1.9 nM | 4.2 nM | C[C@@H]1CCc2ncc(F)cc2[C@H]2CCCN2c2ccc3ncn(c3n2)C(=O)N1 (single isomer, unassigned) [Compound 11] |  |  | 
17.3 nM | 18.9 nM | 6.7 nM | C[C@H]1COc2ncc(F)cc2[C@@H](C)Nc2ccc3ncn(c3n2)C(=O)N1 [Compound 13, (3R,7S)-4^5-fluoro-3,7-dimethyl-1^3H-5-oxa-2,8-diaza-1(5,3)-imidazo[4,5-b]pyridina-4(3,2)-pyridinacyclononphan-9-one] |  |  | 
 |  |  | C[C@@H]1CCc2ncc(F)cc2[C@H]2CCCN2c2ccn3ncc(c3n2)C(=O)N1 [LOXO-195, reference compound] | 93.6% | 6.4% | T/C (%) ([3]; Experiment 1, 10 mg/Kg): 63.1%; TGI (%) ([3]; Experiment 1, 10 mg/Kg): 36.9%; T/C (%) ([3]; Experiment 2, 30 mg/Kg): 0%; TGI (%) ([3]; Experiment 2, 30 mg/Kg): 100%
